According to patent US20080153853A1, “USE OF MTKI 1 FOR TREATING OR PREVENTING BRAIN CANCER” (priority 2006, published 2008):

Legend:
[1] = system: A431 vulval carcinoma cells (s.c. tumor); assay: Subcutaneous injection of A431 cells in rats: s.c. tumor growth; format: in vivo, rat; conditions: for Treatment versus Control (taking control as 100%), median s.c. A431 tumor volume: day 18, 24 hr after last treatment; for Effect on subcutaneous A431 tumor growth (median s.c. tumor volumes, FIG. 1): MTKI 1 p.o. at all doses tested (50, 75, 100 mpk), BCNU i.v. day 4 and day 18
Description: A431 (ATCC, Rockville, Md. USA) vulval carcinoma cells were stereo-tactically injected into athymic nude rats and mice. Tumor growth delay was followed by using animal survival as readout in the rat study or using MRI imaging in the case of the mouse study. Subcutaneous Injection of Cells in Rats The same day of the stereotaxic injection, rats were injected subcutaneously with A431 cells at D0. The tumor was obtained in rats by subcutaneous (SC) injection of 1×10^7 A431 cells in RPMI medium (200 μl) in their right flank. For subcutaneous injection of tumor cells, rats were anesthetised by inhalation of Isoflurane Forene (Minerve, Bondoufle, France). MTKI 1 (Compound 1 in the figures hereinafter) was dissolved in a solution of 20% Hydroxypropyl-β-cyclodextrine (20% β-HP-Cyclodextrin, pH 4.0) and given by oral gavage, daily for a period of fourteen days starting four days post inoculation of the cells, i.e. from day 4-17. Vehicle treated animals only received the β-HP-Cyclodextrin solution. The reference compound BCNU (Carmustin) was dosed intravenously on day 4 and day 18.

[2] = system: A431 vulval carcinoma cells (intracranial tumor); assay: Stereotaxic injection of A431 cells in the brain of rats: animal survival; format: in vivo, rat; conditions: rats with intracranial and s.c. A431 tumors, vehicle 49
Text: A431 (ATCC, Rockville, Md. USA) vulval carcinoma cells were stereo-tactically injected into athymic nude rats and mice. Tumor growth delay was followed by using animal survival as readout in the rat study or using MRI imaging in the case of the mouse study.
Stereotaxic Injection of Cells in the Brain of Rats
Forty (40) rats (Wistar, BDIX or Sprague Dawley) in part I and 40 nude rats were sterotaxically injected with cells at D0. For stereotaxic injection of tumor cells, rats were anesthetised by an intramuscular injection of a Ketamine (Ketamine500®, Ref 043KET204, Centravet, France) and Xylazine (Rompun®, Ref 002ROM001, Centravet, France) mixture (2/1, v/v, 70 and 15 mg/kg, respectively). 1×10^5 A431 Cells were stereotaxically injected using 4 independant stereotaxic apparatus (Kopf Instrument, Germany and Stoelting Company, USA) in the right frontal lobe with 1×10^5 tumor cells re-suspended in 5 μl of RPMI medium. Five μl of the cell suspension was injected according to SOP No TEC-083/001 at 0.5 μl/min. After cells injection, rats were observed during 1 hour.
(§1) MTKI 1 (Compound 1 in the figures hereinafter) was dissolved in a solution of 20% Hydroxypropyl-β-cyclodextrine (20% β-HP-Cyclodextrin, pH 4.0) and given by oral gavage, daily for a period of fourteen days starting four days post inoculation of the cells, i.e. from day 4-17. Vehicle treated animals only received the β-HP-Cyclodextrin solution.
(§2) The reference compound BCNU (Carmustin) was dosed intravenously on day 4 and day 18.

[3] = Clinical signs of toxicity (body weight loss, behavioral changes) in treated tumor-bearing rats; conditions: high dose 15 mpk i.v. day 4 and day 18
Description: as §1, §2

Row | Compound | Treatment versus Control (taking control as 100%), median s.c. A431 tumor volume ([1]; 50 mpk p.o. QDx14 (day 4-17)) [%] | Treatment versus Control (taking control as 100%), median s.c. A431 tumor volume ([1]; 75 mpk p.o. QDx14 (day 4-17)) [%] | Treatment versus Control (taking control as 100%), median s.c. A431 tumor volume ([1]; 100 mpk p.o. QDx14 (day 4-17)) [%] | Effect on subcutaneous A431 tumor growth (median s.c. tumor volumes, FIG. 1) [1] | Survival times (50%) ([2]; 50 mpk p.o. daily day 4-17) [days] | Survival times (50%) ([2]; 75 mpk p.o. daily day 4-17) [days] | Survival times (50%) ([2]; 100 mpk p.o. daily day 4-17) [days] | Clinical signs of toxicity, i.e. body weight loss [3]
1 | COc1cc2ncnc3c2cc1OCCCCCN(C)Cc1ccc(Br)cc1N3 [MTKI 1, 4,6-ethanediylidenepyrimido[4,5-b][6,1,12]benzoxadiazacyclo-pentadecine, 17-bromo-8,9,10,11,12,13,14,19-octahydro-20-methoxy-13-methyl] | 5.37 | 4.29 | 3.17 | clearly inhibited | 61 | 83 | 88 | –
2 | O=NN(CCCl)C(=O)NCCCl [BCNU, reference compound] | – | – | – | no effect | – | – | – | may have induced some mild toxicity
